# *1 amine or outer side, *2 acyl side, *3 side chain or, on linkers, in order; H or OH if unused. Primed or numbered codes have the meaning given here. Where no end group is shown, it is not given here. [ ]: non-standard residue; d: D form. The star is where a group is joined. C20 diacid = O=C(O)CCCCCCCCCCCCCCCCCCC(=O)*; γGlu = O=C(O)[C@H](CCC(=O)[*:2])N[*:1]; Iva = CC[C@](C)(N)C(=O)O; PEG2′ = not defined here
# Legend:
# MMP9 = experiment: ELISA of MMP9 in serum of mice of the bleomycin model; format: in vivo, C57BL/6J mice; details: BLM mice, 150 μg/kg daily intraperitoneal, 14 days, FIG. 6-A
# Protocol: (§1) Molding method: 78 male C57BL/6J mice, 16-18 g in weight and 6-8 weeks old, provided by Laboratory Animal Center, Sun Yat-sen University, randomly divided into 13 groups: 1) normal control group (Normal), n=6; 2) sham-operated saline control group (Saline), n=6; 3) bleomycin model group (BLM), n=6; and 4) model treatment group: administration of 150 μg/kg series compounds to mice, 10 groups in total, n=6/group. On the 7th day after the operation of bleomycin induced pulmonary fibrosis in mice, mice in the model treatment group are treated with drugs (administration frequency: daily administration/150 μg/kg, intraperitoneal injection). Samples are taken 14 days after administration, and pathological observations are recorded.
# (§2) The bleomycin (purchased from TCI Shanghai)) induced pulmonary fibrosis model manifests the following pathological features: bronchiectasis, hydropic degeneration of bronchial epithelial cells, obvious edema and widening of alveolar interstitium, and deposition of a large number of fibroblasts and collagen tissue. The alveolar structure almost completely disappears, filled with fibrous connective tissue, and accompanied by inflammatory cell infiltration. After 14 days of administration, the mice in the model treatment group are treated and sampled. Blood is taken from the retrobulbar vein for detection of serological indicators, and […] is taken for pathological analysis.
# (§3) The occurrence and development of fibrotic diseases are related to TGF-β and MMP-9 induced EMT process. Matrix metalloproteinases (MMPs) are matrix degrading proteases that degrade all components of extracellular matrix. They participate in the pathophysiological process of pulmonary fibrosis, play an important role in the abnormal remodeling of extracellular matrix and destruction of basement membrane, and promote the recruitment of inflammatory cells and fibroblasts. The increased expression of MMP-9 in pulmonary fibrosis animal models and patients, higher than the normal MMP-9 level, may destroy normal tissue structure and increase the migration of inflammatory cells to the disease site. In order to further explore the inhibitory mechanism of polypeptide drugs on bleomycin induced pulmonary fibrosis, we detect the expression of TGFβ, MMP9 cell factors in serum of mice in each group by ELISA. […] We speculate that its mechanism should be related to TGF-β.
# [1] = system: CCl4 induced hepatic fibrosis; experiment: Carbon tetrachloride (CCl4) induced hepatic fibrosis model in mice; format: in vivo, C57BL/6J mice; details: 100.0 μg/kg intraperitoneal, 3 weeks of administration; for aggregation of inflammatory cells in the liver (HE staining) / hepatic fibrosis of mice: FIG. 2; for expression of Collagen I in the liver (immunohistochemistry): FIG. 3; for collagen deposition in the liver (Sirius red staining): FIG. 4
# Protocol: Molding method: 72 male C57BL/6J mice, male, 18-22 g in weight and 8 weeks old, provided by Laboratory Animal Center, Sun Yat-sen University, randomly divided into 12 groups: 1) control group (Oil)+saline, intraperitoneal injection, n=6; 2) model control group (CCl4)+saline, intraperitoneal injection, n=6; administration of CCl4 to mice once every three days for 6 weeks; 3) model administration group (CCl4)+100.0 μg/kg series of compounds (group 10), intraperitoneal injection, n=6/group. The mice in the control group are injected with corn oil at the same volume and frequency according to the administration volume of 20% CCl4 at the weight of 5.0 μL/g. Administration frequency: administration of CCl4 to mice once every three days for 6 weeks. After 3 weeks of administration of CCl4 to mice in the model administration group, peptide compounds 1, 5, 7, 11, 12, 13, 17, 18, 21 and 22 are administered for 3 weeks from the 4th week. CCl4 and Oil are purchased from Shanghai Aladdin Biochemical Technology Co., Ltd.
# In the CCl4 induced hepatic fibrosis model, the manifestations are: inflammatory cell infiltration around the central vein area, hydropic degeneration of hepatic cells, and increased accumulation of collagen fibers in the portal area and the hepatic interlobular septum. After three weeks of administration, the mice are treated and sampled. Blood is taken from the retrobulbar vein for detection of serological indicators, and liver tissue is taken for pathological analysis.
# (§4) Hematoxylin-eosin (H&E) staining: paraffin embedded tissue sections are taken and baked at 60° C. for 1 h. Dewaxing and hydration: xylene for 20 minutes→xylene for 20 minutes→absolute alcohol for 15 minutes→absolute alcohol for 15 minutes→95% alcohol for 10 minutes→90% alcohol for 5 minutes→80% alcohol for 5 minutes. Staining: hematoxylin for 7 minutes→rinsing with tap water→differentiation with 1% hydrochloric acid alcohol for 1 s→rinsing with tap water→eosin staining for 15 s-20 s→rinsing with tap water. Dehydration and transparency: 75% alcohol for 1 s→85% alcohol for 1 s→95% alcohol for 1 s→100% alcohol for 1 s→xylene for Is→xylene for 1 s. The sections are aired for 30 minutes and sealed with gum.
# Sirius red staining: drying and dewaxing; standing for 5.0 minutes in double distilled water; Sirius red staining for 60-80 minutes in a dark room; washing for 5 s with 0.5% glacial acetic acid; dehydration and transparency, sealing and taking photos.
# Immunohistochemistry: drying sections, dewaxing, and then soaking in double distilled water for 5 minutes. Antigen retrieval: putting the shelf where pathological sections are placed into a beaker containing citric acid buffer (PH=6.0), and keeping it under high temperature and pressure for 15 minutes; taking out the beaker and letting it stand at room temperature until the temperature drops to the room temperature, then taking out the sections and putting them into 3.0% hydrogen peroxide for 10 minutes to block the endogenous peroxidase activity, and then washing them with PBS for three times, 5 minutes each time; sealing the tissues with 1.0% BSA for 1 h; removing 1.0% BSA, adding Collagen I antibody on the tissue according to the proportion recommended in the Description, and staying overnight at 4° C.; taking out the pathological sections next day, adding the second antibody with horseradish peroxidase after the room temperature is restored, incubating it at 37° C. for 60 minutes, and then use DAB (diaminobenzidine) ([…], USA) to develop color; and re-staining with hematoxylin staining solution, washing with tap water for 5 minutes, differentiating with 1% hydrochloric acid alcohol, then washing with tap water for 5 minutes again, dehydrating, airing, sealing, and taking photos (H&E staining solution and Sirius red staining solution are purchased from Sangon Biotech (Shanghai) Co., Ltd., and Collagen I antibody is purchased from CST Corporation).
# TGF-β = experiment: ELISA of TGFβ in serum of mice of the bleomycin model; format: in vivo, C57BL/6J mice; details: BLM mice, 150 μg/kg daily intraperitoneal, 14 days, FIG. 6-B
# Protocol: as §1, §2, §3
# LX2 cells = experiment: Activity evaluation in LX2 cell model (α-SMA protein expression); format: cell-based, human; details: 1.0 μM and 10.0 μM, 48 hours incubation, GAPDH internal reference, FIG. 1
# From the text: In LX2 cell model (which can be directly used as the evaluation model of hepatic fibrosis cells in vitro, because LX2 cells are human liver activated stellate cells. The LX2 cells are purchased from China Center for Type Culture Collection of the Chinese Academy of Sciences, Shanghai, China), the anti-fibrosis activities of peptide compounds 1-25 are preliminarily screened, and the expression of the marker α-SMA protein of myofibroblast activation is detected. The peptide compounds 1-25 is subjected to cell incubation for 48 hours by using two concentrations (1.0 μM and 10.0 μM). The control group is given the same volume of Dulbecco's modified Eagle medium (DMEM) (purchased from Gibco in the United States), and GAPDH (purchased from TransGen Biotech) as the internal reference, α-actin (α-SMA) is a symbolic feature that distinguishes myoblast cells from myofibroblasts.
# [2] = system: bleomycin induced pulmonary fibrosis; experiment: Bleomycin (BLM) induced pulmonary fibrosis model in mice; format: in vivo, C57BL/6J mice; details: 150 μg/kg daily intraperitoneal, 14 days, FIG. 5; for degree of pulmonary fibrosis (H&E staining and Masson staining): compared with bleomycin control group; for fibronectin in pulmonary parenchyma (α-SMA and Collagen1 immunohistochemistry): compared with bleomycin group
# Protocol: as §1, §2
# as §4, with “H&E” for “Hematoxylin-eosin (H&E)”, “1 s→xylene” for “Is→xylene”
# Masson staining: drying and dewaxing; mordanting; adding celestine blue staining solution for 2-3 min, and washing with water; adding Mayer hematoxylin staining solution and washing with water; differentiating with acid alcohol differentiation liquid for several seconds, and washing with tap water; adding ponceau magenta staining solution and washing with distilled water; treating with phosphomolybdic acid solution; adding aniline blue staining solution for 5 min; treating with weak acid solution for 2 min; dehydration and transparency, airing and sealing with gum.
# Immunohistochemistry: drying sections, dewaxing, and then soaking in double distilled water for 5 minutes. […]
Substance,concentration of MMP9 in serum of mice (MMP9),aggregation of inflammatory cells in the liver (HE staining) [1],hepatic fibrosis of mice [1],expression of Collagen I in the liver (immunohistochemistry) [1],collagen deposition in the liver (Sirius red staining) [1],concentration of TGF-β in serum of mice (TGF-β),inhibiting and improving the activity of α-SMA (expression of α-SMA protein) (LX2 cells),degree of pulmonary fibrosis (H&E staining and Masson staining) [2],fibronectin in pulmonary parenchyma (α-SMA and Collagen1 immunohistochemistry) [2]
(PEG2-PEG2-γGlu-CO(CH2)18CO2H)-Val-Val-Gly-Ser-Pro-Ser-Ala-Gln-Glu-Asp-Ala-Ser-Pro-Leu-NH2 ({C20 diacid-γGlu-PEG2′-PEG2′}-VVGSPSAQEDASPL-NH2) [Compound 12],significantly reduce,significantly improved,significantly improved,significant therapeutic improvement,significant therapeutic improvement,significantly reduce,better effects on inhibiting and improving the activity of α-SMA,significantly reduced,significantly less than that in bleomycin group
"Compound 17: cyclic peptide compound, head-to-tail amide (VVGSPSAQDEASPL; head-to-tail cyclisation; Compound 17)",significantly reduce,significantly improved,significantly improved,significant therapeutic improvement,significant therapeutic improvement,significantly reduce,better effects on inhibiting and improving the activity of α-SMA,significantly reduced,significantly less than that in bleomycin group
"Compound 18: cyclic peptide compound, head-to-tail amide (VVGSPSAQDEASPA; head-to-tail cyclisation; Compound 18)",significantly reduce,significantly improved,significantly improved,significant therapeutic improvement,significant therapeutic improvement,significantly reduce,better effects on inhibiting and improving the activity of α-SMA,significantly reduced,significantly less than that in bleomycin group
"Compound 21: cyclic peptide compound, head-to-tail amide (cyclo(V[Iva]GSPSAQDEASPA); SMILES CC[C@]1(C)NC(=O)[C@H](C(C)C)NC(=O)[C@H](C)NC(=O)[C@@H]2CCCN2C(=O)[C@H](CO)NC(=O)[C@H](C)NC(=O)[C@H](CCC(=O)O)NC(=O)[C@H](CC(=O)O)NC(=O)[C@H](CCC(N)=O)NC(=O)[C@H](C)NC(=O)[C@H](CO)NC(=O)[C@@H]2CCCN2C(=O)[C@H](CO)NC(=O)CNC1=O)",significantly reduce,significantly improved,significantly improved,significant therapeutic improvement,significant therapeutic improvement,significantly reduce,better effects on inhibiting and improving the activity of α-SMA,significantly reduced,significantly less than that in bleomycin group
"Compound 22 (V[Iva]GSPSAQEEASPA; not fully specified (N-terminus, C-terminus))",significantly reduce,significantly improved,significantly improved,significant therapeutic improvement,significant therapeutic improvement,significantly reduce,better effects on inhibiting and improving the activity of α-SMA,significantly reduced,significantly less than that in bleomycin group

# Reference: US20240336653A1, “PEPTIDE COMPOUND TARGETING ELASTIN-DERIVED PEPTIDES AND USE THEREOF” (Shenzhen Turier Biotech Co., Ltd., priority 2020, published 2024)
